Measured values from patent US20130303509A1, “NAMPT INHIBITORS” (AbbVie Inc., priority 2012, published 2013).

Test system: PC3 cells
Assay: NAMPT Cell Proliferation Assay
Assay type: cell-based
Conditions: Homo sapiens, PC-3, 120 h, 5 days incubation, cell viability by Cell Titer Glo
Method in brief: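 Seeded at 500 cells/well in RPMI with 10% heat-inactivated FBS and left to attach overnight at 37° C, 5% CO2. Compounds were added as 10-fold dilutions […] for 5 days, then viability was read by CellTiter-Glo. IC50s came from sigmoidal fits of percent inhibition.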

| SMILES | IC50 |
| --- | --- |
| O=C(Nc1ccc(O[C@@H]2CCN(C(=O)Cc3cc(F)cc(F)c3)C2)cc1)C1CN(c2ccnnc2)C1 [Example 450, N-[4-({(3R)-1-[(3,5-difluorophenyl)acetyl]pyrrolidin-3-yl}oxy)phenyl]-1-(pyridazin-4-yl)azetidine-3-carboxamide] | 50.9 nM |
| O=C(Nc1ccc(O[C@@H]2CCN(C(=O)c3ccc(F)c(F)c3)C2)cc1)C1CN(c2ccnnc2)C1 [Example 451, N-(4-{[(3R)-1-(3,4-difluorobenzoyl)pyrrolidin-3-yl]oxy}phenyl)-1-(pyridazin-4-yl)azetidine-3-carboxamide] | 86.8 nM |
| O=C(Nc1ccc(O[C@@H]2CCN(C(=O)C3CC3)C2)cc1)C1CN(c2ccnnc2)C1 [Example 460, N-(4-{[(3R)-1-(cyclopropylcarbonyl)pyrrolidin-3-yl]oxy}phenyl)-1-(pyridazin-4-yl)azetidine-3-carboxamide] | 223 nM |
| O=C(Nc1ccc(O[C@@H]2CCN(C(=O)C3CCOC3)C2)cc1)C1CN(c2ccnnc2)C1 (stereo partly drawn) [Example 461, 1-(pyridazin-4-yl)-N-(4-{[(3R)-1-(tetrahydrofuran-3-ylcarbonyl)pyrrolidin-3-yl]oxy}phenyl)azetidine-3-carboxamide] | 646 nM |
| O=C(Nc1ccc(O[C@@H]2CCN(C(=O)c3ccccn3)C2)cc1)C1CN(c2ccnnc2)C1 [Example 463, 1-(pyridazin-4-yl)-N-(4-{[(3R)-1-(pyridin-2-ylcarbonyl)pyrrolidin-3-yl]oxy}phenyl)azetidine-3-carboxamide] | 70.9 nM |
| CC(C)(C(=O)N1CC[C@@H](Oc2ccc(NC(=O)C3CN(c4ccnnc4)C3)cc2)C1)c1ccccc1 [Example 466, N-(4-{[(3R)-1-(2-methyl-2-phenylpropanoyl)pyrrolidin-3-yl]oxy}phenyl)-1-(pyridazin-4-yl)azetidine-3-carboxamide] | 8.07 nM |
| O=C(Nc1ccc(O[C@@H]2CCN(C(=O)c3ccc(F)cc3F)C2)cc1)C1CN(c2ccnnc2)C1 [Example 467, N-(4-{[(3R)-1-(2,4-difluorobenzoyl)pyrrolidin-3-yl]oxy}phenyl)-1-(pyridazin-4-yl)azetidine-3-carboxamide] | 15.6 nM |
| COCC(=O)N1CC[C@@H](Oc2ccc(NC(=O)C3CN(c4ccnnc4)C3)cc2)C1 [Example 468, N-(4-{[(3R)-1-(methoxyacetyl)pyrrolidin-3-yl]oxy}phenyl)-1-(pyridazin-4-yl)azetidine-3-carboxamide] | 730 nM |
| O=C(Nc1ccc(O[C@@H]2CCN(C(=O)c3cccs3)C2)cc1)C1CN(c2ccnnc2)C1 [Example 469, 1-(pyridazin-4-yl)-N-(4-{[(3R)-1-(thiophen-2-ylcarbonyl)pyrrolidin-3-yl]oxy}phenyl)azetidine-3-carboxamide] | 8.61 nM |
| O=C(Nc1ccc(O[C@@H]2CCN(C(=O)Cc3cccc(C(F)(F)F)c3)C2)cc1)C1CN(c2ccnnc2)C1 [Example 470, 1-(pyridazin-4-yl)-N-(4-{[(3R)-1-{[3-(trifluoromethyl)phenyl]acetyl}pyrrolidin-3-yl]oxy}phenyl)azetidine-3-carboxamide] | 715 nM |
| CC(C)C(=O)N1CC[C@@H](Oc2ccc(NC(=O)C3CN(c4ccnnc4)C3)cc2)C1 [Example 471, N-(4-{[(3R)-1-(2-methylpropanoyl)pyrrolidin-3-yl]oxy}phenyl)-1-(pyridazin-4-yl)azetidine-3-carboxamide] | 72 nM |
| O=C(Nc1ccc(O[C@@H]2CCN(C(=O)c3ccccc3F)C2)cc1)C1CN(c2ccnnc2)C1 [Example 472, N-(4-{[(3R)-1-(2-fluorobenzoyl)pyrrolidin-3-yl]oxy}phenyl)-1-(pyridazin-4-yl)azetidine-3-carboxamide] | 6.56 nM |
| CCC(C)(C)C(=O)N1CC[C@@H](Oc2ccc(NC(=O)C3CN(c4ccnnc4)C3)cc2)C1 [Example 473, N-(4-{[(3R)-1-(2,2-dimethylbutanoyl)pyrrolidin-3-yl]oxy}phenyl)-1-(pyridazin-4-yl)azetidine-3-carboxamide] | 9.3 nM |
| CC(C)CC(=O)N1CC[C@@H](Oc2ccc(NC(=O)C3CN(c4ccnnc4)C3)cc2)C1 [Example 478, N-(4-{[(3R)-1-(3-methylbutanoyl)pyrrolidin-3-yl]oxy}phenyl)-1-(pyridazin-4-yl)azetidine-3-carboxamide] | 14.3 nM |

Further compounds by falling IC50, results first:

| IC50 | SMILES |
| --- | --- |
| 678 nM | O=C(Nc1ccc(O[C@@H]2CCN(C(=O)Cc3ccc(F)cc3)C2)cc1)C1CN(c2ccnnc2)C1 [Example 449, N-[4-({(3R)-1-[(4-fluorophenyl)acetyl]pyrrolidin-3-yl}oxy)phenyl]-1-(pyridazin-4-yl)azetidine-3-carboxamide] |
| 616 nM | O=C(Nc1ccc(O[C@@H]2CCN(C(=O)c3ccc(Cl)cc3)C2)cc1)C1CN(c2ccnnc2)C1 [Example 465, N-(4-{[(3R)-1-(4-chlorobenzoyl)pyrrolidin-3-yl]oxy}phenyl)-1-(pyridazin-4-yl)azetidine-3-carboxamide] |
| 594 nM | O=C(Nc1ccc(O[C@@H]2CCN(C(=O)c3ccc(C(F)(F)F)cc3)C2)cc1)C1CN(c2ccnnc2)C1 [Example 475, 1-(pyridazin-4-yl)-N-[4-({(3R)-1-[4-(trifluoromethyl)benzoyl]pyrrolidin-3-yl}oxy)phenyl]azetidine-3-carboxamide] |
| 458 nM | O=C(Nc1ccc(O[C@@H]2CCN(C(=O)Cc3ccc(C(F)(F)F)cc3)C2)cc1)C1CN(c2ccnnc2)C1 [Example 455, 1-(pyridazin-4-yl)-N-(4-{[(3R)-1-{[4-(trifluoromethyl)phenyl]acetyl}pyrrolidin-3-yl]oxy}phenyl)azetidine-3-carboxamide] |
| 235 nM | O=C(Nc1ccc(O[C@@H]2CCN(C(=O)c3ccc(OC(F)(F)F)cc3)C2)cc1)C1CN(c2ccnnc2)C1 [Example 477, 1-(pyridazin-4-yl)-N-[4-({(3R)-1-[4-(trifluoromethoxy)benzoyl]pyrrolidin-3-yl}oxy)phenyl]azetidine-3-carboxamide] |
| 214 nM | O=C(Nc1ccc(O[C@@H]2CCN(C(=O)c3cccc(OC(F)(F)F)c3)C2)cc1)C1CN(c2ccnnc2)C1 [Example 462, 1-(pyridazin-4-yl)-N-[4-({(3R)-1-[3-(trifluoromethoxy)benzoyl]pyrrolidin-3-yl}oxy)phenyl]azetidine-3-carboxamide] |
| 142 nM | O=C(Nc1ccc(O[C@@H]2CCN(C(=O)C3CCCO3)C2)cc1)C1CN(c2ccnnc2)C1 (stereo partly drawn) [Example 457, 1-(pyridazin-4-yl)-N-(4-{[(3R)-1-(tetrahydrofuran-2-ylcarbonyl)pyrrolidin-3-yl]oxy}phenyl)azetidine-3-carboxamide] |
| 106 nM | O=C(Nc1ccc(O[C@@H]2CCN(C(=O)Cc3ccc(F)cc3F)C2)cc1)C1CN(c2ccnnc2)C1 [Example 454, N-[4-({(3R)-1-[(2,4-difluorophenyl)acetyl]pyrrolidin-3-yl}oxy)phenyl]-1-(pyridazin-4-yl)azetidine-3-carboxamide] |
| 105 nM | O=C(Nc1ccc(O[C@@H]2CCN(C(=O)c3cccc(C(F)(F)F)c3)C2)cc1)C1CN(c2ccnnc2)C1 [Example 453, 1-(pyridazin-4-yl)-N-[4-({(3R)-1-[3-(trifluoromethyl)benzoyl]pyrrolidin-3-yl}oxy)phenyl]azetidine-3-carboxamide] |
| 68.9 nM | O=C(Nc1ccc(O[C@@H]2CCN(C(=O)CC(F)(F)F)C2)cc1)C1CN(c2ccnnc2)C1 [Example 479, 1-(pyridazin-4-yl)-N-(4-{[(3R)-1-(3,3,3-trifluoropropanoyl)pyrrolidin-3-yl]oxy}phenyl)azetidine-3-carboxamide] |
| 68.5 nM | O=C(Nc1ccc(O[C@@H]2CCN(C(=O)c3cc(F)cc(F)c3)C2)cc1)C1CN(c2ccnnc2)C1 [Example 474, N-(4-{[(3R)-1-(3,5-difluorobenzoyl)pyrrolidin-3-yl]oxy}phenyl)-1-(pyridazin-4-yl)azetidine-3-carboxamide] |
| 65.9 nM | O=C(Nc1ccc(O[C@@H]2CCN(C(=O)c3cccc(Cl)c3)C2)cc1)C1CN(c2ccnnc2)C1 [Example 464, N-(4-{[(3R)-1-(3-chlorobenzoyl)pyrrolidin-3-yl]oxy}phenyl)-1-(pyridazin-4-yl)azetidine-3-carboxamide] |
| 64.4 nM | Cc1ccc(C(=O)N2CC[C@@H](Oc3ccc(NC(=O)C4CN(c5ccnnc5)C4)cc3)C2)s1 [Example 458, N-[4-({(3R)-1-[(5-methylthiophen-2-yl)carbonyl]pyrrolidin-3-yl}oxy)phenyl]-1-(pyridazin-4-yl)azetidine-3-carboxamide] |
| 63.2 nM | O=C(Nc1ccc(O[C@@H]2CCN(C(=O)Cc3cccc(F)c3)C2)cc1)C1CN(c2ccnnc2)C1 [Example 452, N-[4-({(3R)-1-[(3-fluorophenyl)acetyl]pyrrolidin-3-yl}oxy)phenyl]-1-(pyridazin-4-yl)azetidine-3-carboxamide] |
| 39.5 nM | O=C(Nc1ccc(O[C@@H]2CCN(C(=O)c3cscn3)C2)cc1)C1CN(c2ccnnc2)C1 [Example 456, 1-(pyridazin-4-yl)-N-(4-{[(3R)-1-(1,3-thiazol-4-ylcarbonyl)pyrrolidin-3-yl]oxy}phenyl)azetidine-3-carboxamide] |
| 36.9 nM | O=C(Nc1ccc(O[C@@H]2CCN(C(=O)Cc3ccccc3F)C2)cc1)C1CN(c2ccnnc2)C1 [Example 459, N-[4-({(3R)-1-[(2-fluorophenyl)acetyl]pyrrolidin-3-yl}oxy)phenyl]-1-(pyridazin-4-yl)azetidine-3-carboxamide] |
| 17.4 nM | O=C(Nc1ccc(O[C@@H]2CCN(C(=O)c3cccc(F)c3)C2)cc1)C1CN(c2ccnnc2)C1 [Example 476, N-(4-{[(3R)-1-(3-fluorobenzoyl)pyrrolidin-3-yl]oxy}phenyl)-1-(pyridazin-4-yl)azetidine-3-carboxamide] |
| 12.1 nM | CC(C)(C)C(=O)N1CC[C@@H](Oc2ccc(NC(=O)C3CN(c4ccnnc4)C3)cc2)C1 [Example 481, N-(4-{[(3R)-1-(2,2-dimethylpropanoyl)pyrrolidin-3-yl]oxy}phenyl)-1-(pyridazin-4-yl)azetidine-3-carboxamide] |
| 4.24 nM | O=C(Nc1ccc(O[C@@H]2CCN(C(=O)C(F)(F)c3ccccc3)C2)cc1)C1CN(c2ccnnc2)C1 [Example 480, N-[4-({(3R)-1-[difluoro(phenyl)acetyl]pyrrolidin-3-yl}oxy)phenyl]-1-(pyridazin-4-yl)azetidine-3-carboxamide] |
